Where a name gives a salt, the structure may show the parent alone. Read-outs that look alike come from different tables or passages of the source.
How the values were obtained:
[1] = test system: serum cholesterol and serum triglycerides; test: Hypolipidaemic activity in rats (compound in diet, last 7 of 10 days); type: in vivo, Male Wistar rats; conditions: Rattus norvegicus, po, 168 h, 7 days; for change in vivo at 0.2 % strength: 0.2 % w/w dose in diet; for change in vivo at 0.03 % strength: 0.03 % w/w dose in diet; for change in vivo at 0.1 % strength: 0.1 % w/w dose in diet
Method: Hypolipidaemic Activity in Rats
Male Wistar rats each weighing between 120 and 150 g were caged in groups of eight and fed a powdered diet for 10 days. For the last 7 days of that period the test compound was administered orally by mixing the compound in the diet and allowing the animals to feed normally. Food consumption was measured on day 9 for each group.
At noon on day 10 the animals were killed by inhalation of carbon dioxide from solid carbon dioxide. A sample of blood was removed by cardiac puncture and the serum cholesterol and serum triglycerides were analysed by means of an autoanalyser.
Control groups (receiving only the normal, unmedicated diet) were included with each test.
The percentage reductions in the concentrations of serum cholesterol and serum triglycerides were calculated by comparison with the simultaneous controls, for each concentration of the test compound used.

[2] = test system: Smooth muscle cells from explants of pig thoracic aorta; test: Aortic smooth muscle cell proliferation inhibiting activity; type: cell-based; conditions: Sus scrofa, 168 h, 5 μg/ml medium; six or seven day incubation; each value mean of four dishes
Method: Aortic smooth muscle cell proliferation inhibiting activity
Smooth muscle cells were grown in culture from explants of pig thoracic aorta, using Dulbecco's Modified Eagles (DME) Medium containing 20% foetal calf serum (FCS) and antibiotics. The cells were incubated at 37° C. in an atmosphere of 95% air and 5% carbon dioxide. At confluency the cells were routinely subcultured by trypsinising and replating at approximately one third of their confluent density in DME Medium containing 10% FCS and antibiotics.
The smooth muscle cells were plated out at densities of 100,000-200,000 cells per 35×10 mm Falcon dish in 2 ml DME Medium containing 10% FCS and antibiotics. After 24 hours, when the cells had attached to the dishes, the medium was replaced with 2 ml DME Medium containing 1% FCS and antibiotics. The cultures were incubated for a further three days to allow the cells to become quiescent (i.e. no longer undergoing cell division). The medium was then replaced by 2 ml control or test medium. The test medium consisted of DME Medium (containing 10% FCS and antibiotics) and the compound to be tested at a concentration of 5 μg/ml medium. The compounds were pre-dissolved in acetone such that the final concentration of acetone in the medium was 0.2% (v/v). The control medium consisted of DME Medium (containing 10% FCS and antibiotics) and acetone at 0.2% (v/v) concentration. After three days incubation in test or control medium, the medium was replaced with fresh test or control medium and the cells incubated for a further three or four days. At the end of the six or seven day incubation period cell numbers were determined by trypsinising the cells and counting the cell suspension in a Coulter counter.
All results in Table II hereafter represent the mean value for four dishes of cells. Percentage inhibition of proliferation was calculated using the following formula: [formula] where S=Mean cell number per dish at start of experiment (upon addition of control or test medium).
T=Mean cell number per dish in test cultures at completion of experiment.
C=Mean cell number per dish in control cultures at completion of experiment.

[3] = read-out: % change in serum cholesterol compared with control
[4] = read-out: % change in serum triglycerides compared with control

Structure (SMILES)	change in vivo at 0.2 % strength [1, 3]	change in vivo at 0.2 % strength [1, 4]	further results
CCCCCCCc1cc2ccc(C(=O)OCC)cc2[nH]1 [Compound AJJ, ethyl 2-(n-heptyl)indole-6-carboxylate]	-8%	6%	inhibition at 5 µg/mL [2]: 45%
CCCCCCCc1cc2cc(C(=O)OC)ccc2[nH]1 [Compound ASS, methyl 2-(n-heptyl)indole-5-carboxylate]	-2%	-20%	inhibition at 5 µg/mL [2]: 36%
CCCCCCCCCCCc1cc2ccc(C(=O)OCC)cc2[nH]1 [Compound FF, ethyl 2-(n-undecyl)indole-6-carboxylate]	-13%	-40%	–
CCCCCCCCCCCCCCCc1cc2cc(C(=O)O)ccc2[nH]1 [Compound G, 2-(n-pentadecyl)indole-5-carboxylic acid]	–	–	change in vivo at 0.03 % strength [1, 3]: -7%; change in vivo at 0.03 % strength [1, 4]: -41%; inhibition at 5 µg/mL [2]: 51%
CCCCCCCCCCCc1cc2ccc(C(=O)OCCCC)cc2[nH]1 [Compound GG, n-butyl 2-(n-undecyl)indole-6-carboxylate]	-11%	-35%	–
CCCCCCCCCCCCCc1cc2cc(C(=O)O)ccc2[nH]1 [Compound H, 2-(n-tridecyl)indole-5-carboxylic acid]	-48%	-68%	change in vivo at 0.1 % strength [1, 3]: -15%; change in vivo at 0.1 % strength [1, 4]: -26%
CCCCCCCCCCCCCCCc1cc2cc(C(=O)OCCCC)ccc2[nH]1 [Compound HH, n-butyl 2-(n-pentadecyl)indole-5-carboxylate]	-24%	-50%	–
CCCCCCCCCCCCCCCc1cc2cccc(C(=O)O)c2[nH]1 [Compound I, 2-(n-pentadecyl)indole-7-carboxylic acid]	-26%	-33%	–
CCCCCCCCCCCCCCCc1cc2c(C(=O)O)cccc2[nH]1 [Compound J, 2-(n-pentadecyl)indole-4-carboxylic acid]	-9%	-2%	–
CCCCCCCCCCCCc1cc2cc(C(=O)OCCCC)ccc2[nH]1 [Compound KK, n-butyl 2-(n-dodecyl)indole-5-carboxylate]	-18%	-34%	–
CCCCCCCCCc1cc2ccc(C(=O)O)cc2[nH]1 [Compound L, 2-(n-nonyl)indole-6-carboxylic acid]	-21%	-25%	–
CCCCCCCCCCCCCCCc1cc2cc(C(=O)OC)ccc2[nH]1 [Compound LL, methyl 2-(n-pentadecyl)indole-5-carboxylate]	-16%	-22%	change in vivo at 0.1 % strength [1, 3]: -13%; change in vivo at 0.1 % strength [1, 4]: -32%
CCCCCCCCCCc1cc2cc(C(=O)O)ccc2[nH]1 [Compound M, 2-(n-decyl)indole-5-carboxylic acid]	-26%	-65%	–
CCCCCCCCCCCCCCCc1cc2c(C(=O)OCCCC)cccc2[nH]1 [Compound MM, n-butyl 2-(n-pentadecyl)indole-4-carboxylate]	25%	-41%	–
CCCCCCCCCCc1cc2ccc(C(=O)O)cc2[nH]1 [Compound N, 2-(n-decyl)indole-6-carboxylic acid]	-20%	-45%	–
CCCCCCCCCCCCCCc1cc2cc(C(=O)O)ccc2[nH]1 [Compound NN, 2-(n-tetradecyl)indole-5-carboxylic acid]	-39%	-73%	inhibition at 5 µg/mL [2]: 76%
CCCCCCCCCc1cc2cc(C(=O)O)ccc2[nH]1 [Compound O, 2-(n-nonyl)indole-5-carboxylic acid]	-13%	-44%	–
CCCCCCCCCCCCCCCCc1cc2cc(C(=O)O)ccc2[nH]1 [Compound OO, 2-(n-hexadecyl)indole-5-carboxylic acid]	-52%	-75%	–

Structure (SMILES)	change in vivo at 0.2 % strength [1, 3]	change in vivo at 0.2 % strength [1, 4]	further results
CCCCCCCCc1cc2ccc(C(=O)O)cc2[nH]1 [Compound P, 2-(n-octyl)indole-6-carboxylic acid]	-32%	-37%	–
CCCCCCCCCCCCCCCCCCCc1cc2cc(C(=O)O)ccc2[nH]1 [Compound PP, 2-(n-nonadecyl)indole-5-carboxylic acid]	-13%	-41%	–
CCCCCCCc1cc2cc(C(=O)O)ccc2[nH]1 [Compound Q, 2-(n-heptyl)indole-5-carboxylic acid]	-10%	-14%	–
CCCCCCCCCCCCCCCCCCCCCCCc1cc2cc(C(=O)O)ccc2[nH]1 [Compound QQ, 2-(n-tricosyl)indole-5-carboxylic acid]	-16%	-36%	–
CCCCCCCc1cc2ccc(C(=O)O)cc2[nH]1 [Compound R, 2-(n-heptyl)indole-6-carboxylic acid]	-12%	-18%	–
CCCCCCCCCCCCc1cc2ccc(C(=O)O)cc2[nH]1 [Compound S, 2-(n-dodecyl)indole-6-carboxylic acid]	-26%	-52%	–
CCCCCCCCCCCCCCc1cc2ccc(C(=O)O)cc2[nH]1 [Compound SS, 2-(n-tetradecyl)indole-6-carboxylic acid]	-14%	3%	–
CCCCCCCCCCCc1cc2cc(C(=O)OCC)ccc2[nH]1 [Compound U, ethyl 2-(n-undecyl)indole-5-carboxylate]	-13%	-39%	–
CCCCCCCCCCCCCCCCCCCCc1cc2ccc(C(=O)O)cc2[nH]1 [Compound UU, 2-(n-eicosyl)indole-6-carboxylic acid]	-15%	-29%	–
CCCCCCCCCCCCCCCCCCc1cc2ccc(C(=O)O)cc2[nH]1 [Compound V, 2-(n-octadecyl)indole-6-carboxylic acid]	3%	-1%	–
CCCCCCCCCCCc1cc2c(C(=O)O)cccc2[nH]1 [Compound W, 2-(n-undecyl)indole-4-carboxylic acid]	-3%	22%	–
CCCCCCCCCc1cc2cccc(C(=O)O)c2[nH]1 [Compound WW, 2-(n-nonyl)indole-7-carboxylic acid]	-3%	45%	–
CCCCCCCCc1cc2cc(C(=O)O)ccc2[nH]1 [Compound X, 2-(n-octyl)indole-5-carboxylic acid]	-18%	-25%	–
CCCCCCCCCCCc1cc2cccc(C(=O)O)c2[nH]1 [Compound XX, 2-(n-undecyl)indole-7-carboxylic acid]	-2%	8%	–
CCCCCCCCCCCCc1cc2cc(C(=O)O)ccc2[nH]1 [Compound Y, 2-(n-dodecyl)indole-5-carboxylic acid]	-30%	-80%	change in vivo at 0.1 % strength [1, 3]: -20%; change in vivo at 0.1 % strength [1, 4]: -51%
CCCCCCCCCc1cc2c(C(=O)O)cccc2[nH]1 [Compound Z, 2-(n-nonyl)indole-4-carboxylic acid]	-14%	-14%	–
CCCCCCCCCCCCCCCc1cc2ccc(C(=O)O)cc2[nH]1 [D sodium salt]	–	–	change in vivo at 0.1 % strength [1, 3]: -10%; change in vivo at 0.1 % strength [1, 4]: -18%

Source: patent US4493843A, “Indole and indoline carboxylic acid compounds and method of use” (May & Baker Limited, priority 1980, dated 1985)
